Laboratory results published in PubChem BioAssay (NCI).
“And” between values parts separate entries of the source, which are not always exact repeats. Equal entries are not always repeated.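 Five compound concentrations were applied to cells in 96-well plates for 48 hours; endpoints were derived by simple linear interpolation of the resulting dose-response curve. Here, GI50 denotes the concentration required for 50% inhibition of growth. The concentration for full growth arrest is given as TGI.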

Assays:
Test in all cases: NCI anticancer screen, dose series, 48 h
SK-MEL-5 melanoma = tested on: SK-MEL-5 melanoma
PC-3 prostate = tested on: PC-3 prostate
TK-10 renal = tested on: TK-10 renal
A498 renal = tested on: A498 renal
MDA-MB-435 = tested on: MDA-MB-435
HOP-92 NSCLC = tested on: HOP-92 NSCLC

SMILES	GI50 (SK-MEL-5 melanoma)	TGI (SK-MEL-5 melanoma)	GI50 (PC-3 prostate)	TGI (PC-3 prostate)	GI50 (TK-10 renal)	TGI (TK-10 renal)	GI50 (A498 renal)	TGI (A498 renal)	GI50 (MDA-MB-435)	TGI (MDA-MB-435)	GI50 (HOP-92 NSCLC)	TGI (HOP-92 NSCLC)
NC(=O)c1c(NC(=O)c2ccc(C(F)(F)F)cc2Cl)sc2c1CCC(=O)C2	0.684 µM	2.08 µM	0.164 µM	1.3 µM	0.423 µM	4.07 µM	1.95 µM	6.37 µM	0.393 µM	1.79 µM	0.426 µM	2.88 µM
Nc1ccccc1SC(CC(=O)c1ccccc1)c1c(Cl)cccc1Cl (configuration not stated)	9.17 µM	21.2 µM	–	–	4.71 µM	13.3 µM	11.2 µM	24 µM	2.87 µM	10.7 µM	6.11 µM	21.5 µM
O=C(O)CC(CC(=O)O)n1cccc1	–	> 100 µM	–	> 100 µM	–	> 100 µM	–	> 100 µM	–	> 100 µM	–	> 100 µM
CN(C)Cc1c[nH]c2nc[nH]c(=O)c12	–	> 100 µM	–	> 100 µM	–	> 100 µM	–	> 100 µM	–	> 100 µM	–	85.8 µM
CN(COC(=O)C(C)(C)C)c1nc(N(C)COC(=O)C(C)(C)C)nc(N(C)COC(=O)C(C)(C)C)n1	–	> 100 µM	–	> 100 µM	–	> 100 µM	–	> 100 µM	–	–	–	–
Cc1c(C(=O)Nc2ccc(Oc3ccnc4cc(OCC(C)(C)O)ccc34)c(F)c2)c(=O)n(-c2ccccc2)n1C	–	–	–	–	9.9 µM	> 100 µM	–	–	–	–	1.88 µM	22.2 µM
COc1ccc(/C(=N/O)c2cc(F)c(F)c(OC)c2F)cc1O	0.599 µM	17.3 µM	0.565 µM	> 100 µM	17.9 µM	> 100 µM	3.79 µM	> 100 µM	–	–	18.9 µM	> 100 µM
O=C1C=CC(=O)N1c1ccc2ccccc2c1	16.4 µM	30.4 µM	18.1 µM	37.8 µM	6.4 µM	19.1 µM	12.7 µM	27.3 µM	16.9 µM	32.2 µM	7.59 µM	22.2 µM
C=CC(=O)N1CCN(c2nc(OC[C@@H]3CCCN3C)nc3c(F)c(-c4nc(N)cc(C)c4C(F)(F)F)c(Cl)cc23)[C@@H](C)C1	1.74 µM	3.33 µM	2.91 µM	12 µM	2.01 µM	4.53 µM	5.34 µM	19.3 µM	2.09 µM	4.65 µM	1.75 µM	3.71 µM
O=C1OC(=O)c2c1cc1cc3c(cc1c2-c1ccc2c(c1)OCO2)OCO3	–	> 100 µM	–	> 100 µM	–	> 100 µM	–	> 100 µM	–	> 100 µM	–	> 100 µM
Cc1nc2sc(C(=O)Nc3cccc4c3OCCO4)c(N)c2cc1C(C)O (configuration not stated)	4.82 µM	> 100 µM	5 µM	> 100 µM	> 100 µM	> 100 µM	2.16 µM	9.05 µM	0.454 µM	3.54 µM	5.52 µM	> 100 µM
O=C(N/N=C/c1coc2ccc(Cl)cc2c1=O)c1cc(O)c(O)c(O)c1	11.6 µM	34.2 µM	33.2 µM	> 100 µM	–	–	13.6 µM	42.3 µM	27.2 µM	66.7 µM	31.9 µM	> 100 µM
C[C@H]1CCC/C=C/[C@@H]2C[C@H](O)C[C@H]2[C@H](O)C(O)C(O)C(=O)O1 (some centres not stated)	0.362 µM	–	3.44 µM	> 29.8 µM	6.42 µM	> 100 µM	2.29 µM	7.96 µM	3.74 µM	> 100 µM	–	–
O=C1c2ccccc2-n2c1nc1ccc([N+](=O)[O-])cc1c2=O	–	> 100 µM	–	> 100 µM	–	> 100 µM	–	35.5 µM	–	–	–	> 100 µM
O=C1c2c[n+](Cc3ccccc3)ccc2-c2nc3ccccc3c3ccnc1c23	0.439 µM	1.04 µM	0.826 µM	3.92 µM	0.818 µM	2.8 µM	0.532 µM	1.97 µM	0.434 µM	0.972 µM	0.548 µM	1.9 µM
O=NN(CC(=O)NNc1ccccc1)CC(=O)NNc1ccccc1	8.67 µM	> 100 µM	5.64 µM	> 100 µM	> 100 µM	> 100 µM	> 100 µM	> 100 µM	> 20.1 µM	> 100 µM	> 100 µM	> 100 µM
Cc1ncc2c(n1)CCC1=C2OS(=O)(=O)CC1N(C)C (configuration not stated)	–	> 100 µM	–	> 100 µM	–	> 100 µM	–	> 100 µM	–	> 100 µM	–	–
CCn1cnc(C[C@H](NC(=O)[C@@H](NC(=O)Nc2cc(C(F)(F)F)cc(C(F)(F)F)c2)C(C)(C)C)C(=O)OC)c1	> 10 µM	> 10 µM	> 10 µM	> 10 µM	> 10 µM	> 10 µM	> 10 µM	> 10 µM	> 10 µM	> 10 µM	> 10 µM	> 10 µM
COC(=O)c1cc2c3cc(Cl)ccc3[nH]c2c2ncccc12	> 100 µM	> 100 µM	> 100 µM	> 100 µM	> 100 µM	> 100 µM	> 100 µM	> 100 µM	> 100 µM	> 100 µM	> 100 µM	> 100 µM
CC(C)C[C@H](NC(=O)[C@@H](N)Cc1cccc2ccccc12)B(O)O	0.176 µM	–	1.12 µM	–	0.439 µM	–	0.202 µM	–	0.114 µM	–	0.0288 µM	–
CC(C)OC(=O)NNc1c(Cl)cc(Cl)cc1Cl	–	60.5 µM	–	> 100 µM	–	> 100 µM	–	> 100 µM	–	> 100 µM	–	> 100 µM
C(#Cc1ccccc1C#Cc1cnccn1)c1cnccn1	16.9 µM	35.9 µM	18.6 µM	55.3 µM	27.2 µM	> 78.2 µM	20.2 µM	72.1 µM	18.5 µM	51.8 µM	79.5 µM	> 100 µM

SMILES	GI50 (SK-MEL-5 melanoma)	TGI (SK-MEL-5 melanoma)	GI50 (PC-3 prostate)	TGI (PC-3 prostate)	GI50 (TK-10 renal)	TGI (TK-10 renal)	GI50 (A498 renal)	TGI (A498 renal)	GI50 (MDA-MB-435)	TGI (MDA-MB-435)	GI50 (HOP-92 NSCLC)	TGI (HOP-92 NSCLC)
CCCCCCCCCCCCNCCCc1ccccc1	1.73 µM	3.11 µM	–	–	1.63 µM	2.98 µM	2.3 µM	6.69 µM	1.73 µM	3.17 µM	1.34 µM	2.83 µM
O=c1oc2cc(O)ccc2cc1-c1nc2ccccc2o1	–	40.8 µM	–	> 100 µM	–	> 100 µM	–	84.7 µM	–	> 100 µM	–	78.3 µM
O=C(Nc1cccc2[nH]c(C(F)(F)F)nc12)c1ccc(Br)cc1F	1.85 µM	3.94 µM	2.75 µM	10.4 µM	3.43 µM	9.55 µM	2 µM	5.57 µM	3.33 µM	12.1 µM	1.38 µM	4.1 µM
CC(=O)OC1C(C)OC(Oc2c(-c3ccc(O)cc3)oc3cc(O)cc(O)c3c2=O)C(O)C1OC(C)=O (configuration not stated)	17.4 µM	39.9 µM	30.5 µM	> 100 µM	31.9 µM	> 90.8 µM	> 52.4 µM	> 100 µM	27.2 µM	> 75.4 µM	13.2 µM	54.3 µM
Nc1ncnc2occ(-c3ccc(NC(=O)Nc4cccc(C(F)(F)F)c4)cc3)c12	3.06 µM	6.21 µM	4.94 µM	13.3 µM	2.9 µM	11.8 µM	0.422 µM	3.22 µM	2.22 µM	6.48 µM	3.43 µM	10.1 µM
O=C(NCCc1nccs1)c1cnc2c(S)cccc2c1	3.2 µM	16 µM	4.39 µM	26.6 µM	5.8 µM	19.5 µM	4.59 µM	16.7 µM	3.85 µM	53.5 µM	19.8 µM	40.8 µM
O=C(Nc1ccc(Br)cc1)c1cc(Br)ccc1O	0.304 µM and 0.416 µM	1.16 µM and 1.56 µM	0.973 µM and 2.69 µM	12.7 µM and > 29 µM	0.379 µM and 1.56 µM	> 22.1 µM	0.219 µM and 0.358 µM	0.841 µM and 1.82 µM	0.43 µM and 1.38 µM	3.23 µM and 5.66 µM	0.218 µM and 0.332 µM	0.698 µM and 2.88 µM
Nc1ncnc2c1ncn2C1OC(F)(COS(N)(=O)=O)C(O)C1O (configuration not stated)	> 100 µM	> 100 µM	> 100 µM	> 100 µM	> 100 µM	> 100 µM	> 100 µM	> 100 µM	> 100 µM	> 100 µM	36.3 µM	> 100 µM
CN(C)Cc1nsc(N(C)C)n1	–	> 100 µM	–	> 100 µM	–	> 100 µM	–	> 100 µM	–	> 100 µM	–	> 100 µM
CC(C)(C)c1ccc(OCCCCCCCN2CCNCC2)cc1	1.82 µM	3.4 µM	1.66 µM	3.85 µM	1.6 µM	3.06 µM	–	–	1.57 µM	2.98 µM	1.72 µM	6.11 µM
COc1cccc2c1C(=O)c1c(O)c3c(c(O)c1C2=O)C[C@@](O)(C(=O)CO)C[C@@H]3OC1CC2C(OCN2CN2COC3C(C)OC(O[C@H]4C[C@](O)(C(=O)CO)Cc5c(O)c6c(c(O)c54)C(=O)c4c(OC)cccc4C6=O)CC32)C(C)O1 (some centres not stated)	0.0143 µM	0.0492 µM	0.0107 µM	0.0896 µM	0.0205 µM	0.0752 µM	0.0196 µM	0.0821 µM	0.013 µM	0.0391 µM	0.00606 µM	> 0.293 µM
CCOC(=O)c1c(C)n(Cc2ccc(Cl)cc2Cl)c2c1cc(O)c1[nH]c(Cc3ccccc3)nc12	1.58 µM	3.25 µM	2.11 µM	5.62 µM	7.07 µM	29 µM	–	–	5.86 µM	24.7 µM	1.77 µM	4.16 µM
O=C(/C=C/c1cccc(Cl)c1)c1ccccc1	13.2 µM	26.3 µM	4.13 µM	22.3 µM	–	–	10.2 µM	21.9 µM	2 µM	5.43 µM	16.3 µM	32.8 µM
Cc1cc(N)c2cc(NC(=O)/C=C\c3ccccc3Cl)ccc2n1	1.46 µM	2.8 µM	1.46 µM	2.84 µM	2.11 µM	3.69 µM	1.5 µM	2.95 µM	1.15 µM	2.52 µM	1.56 µM	3.27 µM
COc1cc(/C=C2\CC3C4CC=C5C[C@@H](N6CCCC6)CC[C@]5(C)C4CC[C@]3(C)[C@H]2OC(C)=O)ccc1OCCCn1ccnc1 (some centres not stated)	0.373 µM	0.79 µM	0.958 µM	8.41 µM	0.479 µM	1.48 µM	2.66 µM	5.18 µM	0.912 µM	1.68 µM	6.09 µM	17.7 µM
CCOC(=O)CCC(NC(=O)c1ccc(Oc2nc3cc(N)cc(N)c3nc2-c2ccccc2)cc1)C(=O)OCC (configuration not stated)	18 µM	53.8 µM	73.5 µM	> 100 µM	> 100 µM	> 100 µM	–	–	30.2 µM	> 100 µM	30.1 µM	> 100 µM
CCc1n(Cc2ccc3ccccc3c2)cc[n+]1Cc1ccc2ccccc2c1	0.361 µM	1.28 µM	0.699 µM	2.49 µM	1.65 µM	3.32 µM	1.13 µM	4.15 µM	0.424 µM	1.57 µM	0.338 µM	1.77 µM
N#C/C(=C\c1ccccn1)c1nc2ccccc2o1	18 µM	43 µM	17.6 µM	50.5 µM	50.3 µM	> 100 µM	30.4 µM	99.2 µM	34.6 µM	> 100 µM	0.0586 µM	20.7 µM
Cc1ccc(S(=O)(=O)NC(=O)Nc2ncn[nH]2)cc1	–	> 100 µM	–	> 100 µM	–	> 100 µM	–	> 100 µM	–	> 100 µM	–	> 100 µM
C=CCC(NCc1ccccc1)c1cn(C(=O)OCC)c2ccccc12 (configuration not stated)	13.9 µM	28 µM	22.9 µM	96.4 µM	16.5 µM	36.6 µM	–	–	20.2 µM	45.9 µM	13.8 µM	40.7 µM
COc1ccc(C(=O)c2no[n+]([O-])c2C(=O)c2ccc(OC)cc2)cc1	12.6 µM	25.1 µM	5.21 µM	16.8 µM	1.41 µM	2.82 µM	15.6 µM	29.2 µM	6.72 µM	22.9 µM	1.72 µM	3.96 µM
